# In PubChem BioAssay (NCI):
#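 96-well plates; 48 h exposure; 5 concentrations. Endpoints by linear interpolation between flanking doses. Not reached: highest tested concentration assigned. GI50 marks 50% less growth. TGI denotes the concentration required for complete inhibition of growth.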
# Tests used:
# Experiment in all cases: NCI tumour cell line growth inhibition, 48 h
# [1] = test system: DMS 273 small cell lung
# [2] = test system: HCT-116 colon
# [3] = test system: KM20L2 colon
# [4] = test system: A498 renal
# [5] = test system: HCT-15 colon
# [6] = test system: ACHN renal
# [7] = test system: COLO 205 colon
# [8] = test system: A549 NSCLC
# [9] = test system: SNB-75 CNS
# [10] = test system: LXFL 529 NSCLC
# [11] = test system: KM12 colon
# [12] = test system: HOP-62 NSCLC
# [13] = test system: OVCAR-4 ovarian
# [14] = test system: SN12C renal
# [15] = test system: NCI-H226 lung
# [16] = test system: SNB-19 CNS
# [17] = test system: NCI-H23 lung
# [18] = test system: UACC-257 melanoma
# [19] = test system: HCC-2998 colon
# [20] = test system: SK-MEL-28 melanoma
# [21] = test system: DMS 114 small cell lung
# [22] = test system: SF-295 CNS
# [23] = test system: OVCAR-5 ovarian
# [24] = test system: 786-0 renal
# [25] = test system: SK-MEL-2 melanoma
# [26] = test system: K-562 leukemia
# [27] = test system: OVCAR-3 ovarian
# [28] = test system: SK-MEL-5 melanoma
# [29] = test system: UACC-62 melanoma
# [30] = test system: OVCAR-8 ovarian
# [31] = test system: SW-620 colon
# [32] = test system: NCI-H522 lung
# [33] = test system: U251 CNS
# [34] = test system: RXF-631 renal
# [35] = test system: XF 498 CNS
# [36] = test system: NCI-H460 lung
# [37] = test system: LOX IMVI melanoma
# [38] = test system: HT29 colon
# [39] = test system: RPMI-8226 leukemia
# [40] = test system: DLD-1 colon
# [41] = test system: CAKI-1 renal
# [42] = test system: SF-539 CNS
# [43] = test system: RXF 393 renal
# [44] = test system: SR leukemia
# [45] = test system: HOP-92 NSCLC
# [46] = test system: M14 melanoma
# [47] = test system: HL-60(TB) leukemia
# [48] = test system: SNB-78 CNS
# [49] = test system: SK-OV-3 ovarian
# [50] = test system: IGROV1 ovarian
# [51] = test system: UO-31 renal
# [52] = test system: TK-10 renal
# [53] = test system: MOLT-4 leukemia
# [54] = test system: EKVX NSCLC
# [55] = test system: MALME-3M melanoma
# [56] = test system: M19-MEL melanoma
smiles,measurement,setting,value
CCC[CH2][Sn]([CH2]CCC)([O]C(=O)C1CCC(=O)N1)[O]C(=O)C1CCC(=O)N1 (configuration not stated),GI50,[1],336 nM
same,TGI,[1],1160 nM
same,GI50,[2],786 nM
same,TGI,[2],2040 nM
same,GI50,[3],446 nM
same,TGI,[3],1690 nM
same,GI50,[4],210 nM
same,TGI,[4],517 nM
same,GI50,[5],182 nM
same,TGI,[5],353 nM
same,GI50,[6],220 nM
same,TGI,[6],512 nM
same,GI50,[7],363 nM
same,TGI,[7],1160 nM
same,GI50,[8],2010 nM
same,TGI,[8],3640 nM
same,GI50,[9],221 nM
same,TGI,[9],752 nM
same,GI50,[10],49.8 nM
same,TGI,[10],188 nM
same,GI50,[11],496 nM
same,TGI,[11],1730 nM
same,GI50,[12],619 nM
same,TGI,[12],2040 nM
same,GI50,[13],376 nM
same,TGI,[13],1710 nM
same,GI50,[14],341 nM
same,TGI,[14],1200 nM
same,GI50,[15],1430 nM
same,TGI,[15],2810 nM
same,GI50,[16],303 nM
same,TGI,[16],909 nM
same,GI50,[17],147 nM
same,TGI,[17],384 nM
same,GI50,[18],159 nM
same,TGI,[18],338 nM
same,GI50,[19],400 nM
same,TGI,[19],1590 nM
same,GI50,[20],258 nM
same,TGI,[20],654 nM
same,GI50,[21],168 nM
same,TGI,[21],367 nM
same,GI50,[22],274 nM
same,TGI,[22],1050 nM
same,GI50,[23],2050 nM
same,TGI,[23],3480 nM
same,GI50,[24],196 nM
same,TGI,[24],409 nM
same,GI50,[25],181 nM
same,TGI,[25],367 nM
same,GI50,[26],138 nM
same,TGI,[26],565 nM
same,GI50,[27],218 nM
same,TGI,[27],663 nM
same,GI50,[28],461 nM
same,TGI,[28],1650 nM
same,GI50,[29],154 nM
same,TGI,[29],331 nM
same,GI50,[30],319 nM
same,TGI,[30],1010 nM
same,GI50,[31],134 nM
same,TGI,[31],307 nM
same,GI50,[32],26.3 nM
same,TGI,[32],110 nM
same,GI50,[33],164 nM
same,TGI,[33],330 nM
same,GI50,[34],159 nM
same,TGI,[34],297 nM
same,GI50,[35],217 nM
same,TGI,[35],376 nM
same,GI50,[36],1270 nM
same,TGI,[36],2530 nM
same,GI50,[37],152 nM
same,TGI,[37],328 nM
same,GI50,[38],588 nM
same,TGI,[38],2060 nM
same,GI50,[39],124 nM
same,TGI,[39],669 nM
same,GI50,[40],353 nM
same,TGI,[40],1520 nM
same,GI50,[41],75.7 nM
same,TGI,[41],356 nM
same,GI50,[42],185 nM
same,TGI,[42],414 nM
same,GI50,[43],300 nM
same,TGI,[43],473 nM
same,GI50,[44],180 nM
same,TGI,[44],526 nM
same,GI50,[45],141 nM
same,TGI,[45],575 nM
same,GI50,[46],200 nM
same,TGI,[46],456 nM
same,GI50,[47],157 nM
same,TGI,[47],445 nM
same,GI50,[48],260 nM
same,TGI,[48],759 nM
same,GI50,[49],801 nM
same,TGI,[49],2020 nM
same,GI50,[50],1100 nM
same,TGI,[50],2480 nM
same,GI50,[51],711 nM
same,TGI,[51],1980 nM
same,GI50,[52],240 nM
same,TGI,[52],682 nM
same,GI50,[53],245 nM
same,TGI,[53],755 nM
same,GI50,[54],264 nM
same,TGI,[54],918 nM
same,GI50,[55],78.3 nM
same,TGI,[55],243 nM
same,GI50,[56],244 nM
same,TGI,[56],824 nM
